ChEMBL document CHEMBL1126831, “A structure-activity study of four dopamine D-1 and D-2 receptor antagonists, representing the phenylindan, -indene, and -indole structural classes of compounds” (J Med Chem, 1993)

Legend:
[1] = target: D(1A) dopamine receptor (Rattus norvegicus, UniProt P18901); assay: Binding affinity towards dopamine receptor D1 by displacement of [3H]-SCH- radioligand in rat striatal membranes; type: cell membranes, Membrane
[2] = target: D(2) dopamine receptor (Rattus norvegicus, UniProt P61169); assay: Binding affinity towardst dopamine D2 receptor by displacement of [3H]-SPI radioligand in rat striatal membranes; type: cell membranes, Membrane
Chain of D(2) dopamine receptor (P61169 whole entry): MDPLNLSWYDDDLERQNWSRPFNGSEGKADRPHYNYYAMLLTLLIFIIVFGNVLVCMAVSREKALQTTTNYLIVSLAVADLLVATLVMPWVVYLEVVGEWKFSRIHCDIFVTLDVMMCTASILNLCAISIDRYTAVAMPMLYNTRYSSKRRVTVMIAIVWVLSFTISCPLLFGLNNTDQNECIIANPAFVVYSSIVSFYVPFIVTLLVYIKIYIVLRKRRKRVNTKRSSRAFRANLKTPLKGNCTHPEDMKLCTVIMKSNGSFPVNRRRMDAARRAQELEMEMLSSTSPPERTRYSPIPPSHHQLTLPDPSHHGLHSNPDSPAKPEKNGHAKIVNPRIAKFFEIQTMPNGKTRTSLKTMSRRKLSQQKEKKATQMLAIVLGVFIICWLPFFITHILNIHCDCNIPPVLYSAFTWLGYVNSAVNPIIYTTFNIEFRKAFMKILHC

Chain of D(1A) dopamine receptor (P18901 whole entry): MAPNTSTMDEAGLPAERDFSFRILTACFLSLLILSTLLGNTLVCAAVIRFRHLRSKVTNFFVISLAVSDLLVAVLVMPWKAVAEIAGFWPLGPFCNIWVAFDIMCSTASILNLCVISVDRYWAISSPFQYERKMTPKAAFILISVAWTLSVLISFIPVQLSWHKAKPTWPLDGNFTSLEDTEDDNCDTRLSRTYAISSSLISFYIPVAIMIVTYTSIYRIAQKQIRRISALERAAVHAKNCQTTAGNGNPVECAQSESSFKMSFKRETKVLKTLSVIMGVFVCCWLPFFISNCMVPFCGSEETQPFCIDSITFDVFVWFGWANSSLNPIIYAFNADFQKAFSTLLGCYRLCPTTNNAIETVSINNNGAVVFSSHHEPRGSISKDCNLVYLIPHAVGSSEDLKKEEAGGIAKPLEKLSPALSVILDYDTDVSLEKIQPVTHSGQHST

IC50 [1] [nM] | IC50 [2] [nM] | Compound
9.5 | 12 | CN1CCN(C2CC(c3ccc(F)cc3)c3ccc(Cl)cc32)CC1 (stereo not drawn)
23 | 5.1 | CN1CC=C(C2=CC(c3ccc(F)cc3)c3ccc(Cl)cc32)CC1 (stereo not drawn)
19 | – | OCCN1CCN([C@@H]2C[C@@H](c3ccc(F)cc3)c3ccc(C(F)(F)F)cc32)CC1 [TEFLUDAZINE]
12 | 19 | CN1CCC(C2=CC(c3ccc(F)cc3)c3ccc(Cl)cc32)CC1 (stereo not drawn)

Compound | IC50 [1] [nM] | IC50 [2] [nM]
CN1CC=C(c2cn(-c3ccc(F)cc3)c3ccc(Cl)cc23)CC1 | 9.8 | –
